{"source": "paper PMC4274170", "about": "(Toxicology letters, 2014)", "key": {"[1]": {"conditions": "mouse, microsomes"}, "[2]": {"conditions": "rat, microsomes"}, "[3]": {"conditions": "human"}, "in vitro [4]": {"experiment": "in vitro", "conditions": "female, B6129SF1/J, mouse, pH 7.4"}, "in vitro [5]": {"experiment": "in vitro", "conditions": "male, Sprague-Dawley, rat, pH 7.4"}, "in vitro [6]": {"experiment": "in vitro", "conditions": "female, human, pH 7.4, Km"}, "In vitro metabolism [7]": {"experiment": "In vitro metabolism"}, "In vitro metabolism [8]": {"experiment": "In vitro metabolism", "type": "in vitro ADME, mouse"}, "humans": {"test_system": "humans", "conditions": "ref WHO, 2010, 2012; cited from earlier work"}, "In vitro metabolism [9]": {"experiment": "In vitro metabolism", "conditions": "female human"}, "In vitro metabolism [10]": {"experiment": "In vitro metabolism", "remark": "listed apart in the source"}, "[11]": {"conditions": "pregnant relative to naïve female mice"}}, "note": "Read-outs that look alike come from different tables or passages of the source.", "data": [{"smiles": "c1ccc2c(c1)cc1ccc3cccc4ccc2c1c34", "note": "[B[a]P, benzo[a]pyrene]", "values": [{"measurement": "B[a]P CLINT exceeded DBC CLINT, margin (in vitro half-life method)", "setting": "[1]; female, B6129SF1/J, pH 7.4", "value": 10.6, "unit": "fold"}, {"measurement": "CLINT for B[a]P exceeded that of DBC, margin (Michaelis-Menten regressions)", "setting": "[1]; female, B6129SF1/J, pH 7.4", "value": 9.0, "unit": "fold"}, {"measurement": "Organism level CLINT, MM", "setting": "[1]", "value": "1445.2 ± 778.0", "unit": "ml/min/kg body weight"}, {"measurement": "Organism level CLINT, t 1/2", "setting": "[1]", "value": "2699.0 ± 1803.4", "unit": "ml/min/kg body weight"}, {"measurement": "Tissue level CLINT, t 1/2", "setting": "[1]", "value": "48.53 ± 32.79", "unit": "ml/min/g tissue"}, {"measurement": "B[a]P CLINT exceeded DBC CLINT, margin (in vitro half-life method)", "setting": "[2]; male, Sprague-Dawley, pH 7.4", "value": 1.4, "unit": "fold"}, {"measurement": "CLINT for B[a]P exceeded that of DBC, margin (Michaelis-Menten regressions)", "setting": "[2]; male, Sprague-Dawley, pH 7.4", "value": 2.6, "unit": "fold"}, {"measurement": "Organism level CLINT, MM", "setting": "[2]", "value": "65.90 ± 71.68", "unit": "ml/min/kg body weight"}, {"measurement": "Organism level CLINT, t 1/2", "setting": "[2]", "value": "51.34 ± 22.19", "unit": "ml/min/kg body weight"}, {"measurement": "Tissue level CLINT, t 1/2", "setting": "[2]", "value": "1.40 ± 0.61", "unit": "ml/min/g tissue"}, {"measurement": "B[a]P CLINT exceeded DBC CLINT, margin (in vitro half-life method)", "setting": "[3]; female, microsomes, pH 7.4", "value": 13.3, "unit": "fold"}, {"measurement": "CLINT for B[a]P exceeded that of DBC, margin (Michaelis-Menten regressions)", "setting": "[3]; female, microsomes, pH 7.4", "value": 3.3, "unit": "fold"}, {"measurement": "Km", "setting": "[3]; female, pH 7.4", "value": "0.725 ± 0.581", "unit": "µM"}, {"measurement": "Organism level CLINT, MM", "setting": "[3]; microsomes", "value": "27.16 ± 29.98", "unit": "ml/min/kg body weight"}, {"measurement": "Organism level CLINT, t 1/2", "setting": "[3]; microsomes", "value": 54.69, "unit": "ml/min/kg body weight"}, {"measurement": "Tissue level CLINT, t 1/2", "setting": "[3]; microsomes", "value": 2.13, "unit": "ml/min/g tissue"}, {"measurement": "Km", "setting": "in vitro [4]", "value": "4.97 ± 1.96", "unit": "µM"}, {"measurement": "Km", "setting": "in vitro [5]", "value": "18 ± 12.9", "unit": "µM"}, {"measurement": "Km", "setting": "in vitro [6]", "value": 0.73, "unit": "µM"}, {"measurement": "KM in male rats exceeded that in female mice", "setting": "In vitro metabolism [7]; male rat relative to female mouse", "value": 3.6, "unit": "fold"}]}, {"smiles": "c1ccc2c(c1)cc1ccc3cccc4c5ccccc5c2c1c34", "note": "[DBC, dibenzo[def,p]chrysene]", "values": [{"measurement": "Km", "setting": "In vitro metabolism [8]; female, B6129SF1/J, mouse, liver microsomes of pregnant (GD17) mice, pH 7.4", "value": "3.28 ± 1.38", "unit": "µM"}, {"measurement": "Tissue level CLINT, MM", "setting": "In vitro metabolism [8]; pregnant mouse, Michaelis-Menten method (Vmax/Km scaled)", "value": "3.81 ± 2.28", "unit": "ml/min/g tissue"}, {"measurement": "Organism level CLINT, MM", "setting": "In vitro metabolism [8]; pregnant mouse, Michaelis-Menten method, liver weight 41.8 g per kg body weight", "value": "159.43 ± 95.51", "unit": "ml/min/kg body weight"}, {"measurement": "Tissue level CLINT, t 1/2", "setting": "In vitro metabolism [8]; pregnant mouse, in vitro half-life method", "value": "3.31 ± 1.75", "unit": "ml/min/g tissue"}, {"measurement": "KM reduced in the pregnant animal", "setting": "In vitro metabolism [8]; [11]", "value": 51, "unit": "%"}, {"measurement": "VMAX reduced in the pregnant animal", "setting": "In vitro metabolism [8]; [11]", "value": 35, "unit": "%"}, {"measurement": "higher tissue level CLINT in the pregnant animal (Michaelis-Menten regression method)", "setting": "In vitro metabolism [8]; [11]", "value": 30, "unit": "%"}, {"measurement": "tissue level CLINT lower in the pregnant animal (in vitro half-life method)", "setting": "In vitro metabolism [8]; [11]", "value": 28, "unit": "%"}, {"measurement": "IARC classification", "setting": "humans", "value": "Group 2A"}, {"measurement": "Tissue level CLINT, MM", "setting": "In vitro metabolism [9]; Michaelis-Menten method (Vmax/Km scaled)", "value": "0.32 ± 0.46", "unit": "ml/min/g tissue"}, {"measurement": "Organism level CLINT, MM", "setting": "In vitro metabolism [9]; Michaelis-Menten method, liver weight 25.7 g per kg body weight", "value": "8.19 ± 11.73", "unit": "ml/min/kg body weight"}, {"measurement": "Tissue level CLINT, t 1/2", "setting": "In vitro metabolism [9]; in vitro half-life method", "value": 0.16, "unit": "ml/min/g tissue"}, {"measurement": "Organism level CLINT, t 1/2", "setting": "In vitro metabolism [9]; in vitro half-life method, liver weight 25.7 g per kg body weight", "value": 4.23, "unit": "ml/min/kg body weight"}, {"measurement": "Vmax", "setting": "In vitro metabolism [7]; male rat liver microsomes, Michaelis-Menten regression of substrate depletion", "value": "0.167 ± 0.064", "unit": "nmol/min/mg MSP"}, {"measurement": "Tissue level CLINT, MM", "setting": "In vitro metabolism [7]; male rat, Michaelis-Menten method (Vmax/Km scaled)", "value": "0.69 ± 0.73", "unit": "ml/min/g tissue"}, {"measurement": "Organism level CLINT, MM", "setting": "In vitro metabolism [7]; male rat, Michaelis-Menten method, liver weight 36.6 g per kg body weight", "value": "25.14 ± 26.85", "unit": "ml/min/kg body weight"}, {"measurement": "Tissue level CLINT, t 1/2", "setting": "In vitro metabolism [7]; male rat, in vitro half-life method", "value": "1.01 ± 0.30", "unit": "ml/min/g tissue"}, {"measurement": "Organism level CLINT, t 1/2", "setting": "In vitro metabolism [7]; male rat, in vitro half-life method, liver weight 36.6 g per kg body weight", "value": "37.05 ± 10.96", "unit": "ml/min/kg body weight"}, {"measurement": "Km", "setting": "In vitro metabolism [7]; male, Sprague-Dawley, rat, pH 7.4", "value": "7.28 ± 4.99", "unit": "µM"}, {"measurement": "Km", "setting": "In vitro metabolism [10]; female, B6129SF1/J, mouse, pH 7.4", "value": "6.63 ± 1.01", "unit": "µM"}, {"measurement": "Vmax", "setting": "In vitro metabolism [10]; naïve mouse liver microsomes, Michaelis-Menten regression of substrate depletion", "value": "0.646 ± 0.055", "unit": "nmol/min/mg MSP"}, {"measurement": "Tissue level CLINT, MM", "setting": "In vitro metabolism [10]; naïve mouse, Michaelis-Menten method (Vmax/Km scaled)", "value": "2.92 ± 0.71", "unit": "ml/min/g tissue"}, {"measurement": "Organism level CLINT, MM", "setting": "In vitro metabolism [10]; naïve mouse, Michaelis-Menten method, liver weight 55 g per kg body weight", "value": "160.71 ± 38.94", "unit": "ml/min/kg body weight"}, {"measurement": "Tissue level CLINT, t 1/2", "setting": "In vitro metabolism [10]; naïve mouse, in vitro half-life method", "value": "4.59 ± 0.53", "unit": "ml/min/g tissue"}, {"measurement": "Organism level CLINT, t 1/2", "setting": "In vitro metabolism [10]; naïve mouse, in vitro half-life method, liver weight 55 g per kg body weight", "value": "252.18 ± 29.26", "unit": "ml/min/kg body weight"}]}]}
